Key:
Assay type in all cases: in vivo
[1] = test system: Botrytis cinerea; test: Test A: tomato Botrytis, preventive spray on tomato seedlings; settings: 40 ppm test suspension sprayed to run-off on tomato seedlings, inoculated the following day; 100 = 100% disease control, 0 = no control; triplicate, averaged
Protocol: (§1) General protocol for preparing test suspensions for Tests A-G: the test compounds were first dissolved in acetone in an amount equal to 3% of the final volume and then suspended at the desired concentration (in ppm) in acetone and purified water (50/50 mix by volume) containing 250 ppm of the surfactant Trem® 014 (polyhydric alcohol esters). The resulting test suspensions were then used in Tests A-G. Each test was conducted in triplicate, and the results were averaged. Spraying a 40 ppm test suspension to the point of run-off on the test plants was the equivalent of a rate of about 160 g/ha. Unless otherwise indicated, the rating values indicate a 40 ppm test suspension was used.
The test suspension was sprayed to the point of run-off on tomato seedlings. The following day the seedlings were inoculated with a spore suspension of Botrytis cinerea (the causal agent of tomato Botrytis) and incubated in saturated atmosphere at 20° C. for 48 h, and then moved to a growth chamber at 24° C. for 3 additional days, after which time visual disease ratings were made.
(§2) Results for Tests A-G are given in Table A. In the Table, a rating of 100 indicates 100% disease control and a rating of 0 indicates no disease control (relative to the controls). A hyphen (-) indicates no test results.

[2] = test system: Alternaria solani; test: Test B: tomato early blight, preventive spray on tomato seedlings; settings: 40 ppm test suspension sprayed to run-off on tomato seedlings, inoculated the following day; 100 = 100% disease control, 0 = no control; triplicate, averaged
Protocol: as §1
The test suspension was sprayed to the point of run-off on tomato seedlings. The following day the seedlings were inoculated with a spore suspension of Alternaria solani (the causal agent of tomato early blight) and incubated in a saturated atmosphere at 27° C. for 48 h, and then moved to a growth chamber at 20° C. for 5 days, after which time visual disease ratings were made.
as §2

[3] = test system: Septoria nodorum; test: Test C: Septoria glume blotch, preventive spray on wheat seedlings; settings: 40 ppm test suspension sprayed to run-off on wheat seedlings, inoculated the following day; 100 = 100% disease control, 0 = no control; triplicate, averaged
Protocol: as §1
(§3) The test suspension was sprayed to the point of run-off on wheat seedlings. The following day the seedlings were inoculated with a spore suspension of Septoria nodorum (the causal agent of Septoria glume blotch) and incubated in a saturated atmosphere at 24° C. for 48 h, and then moved to a growth chamber at 20° C. for 9 days, after which time visual disease ratings were made.
as §2

[4] = test system: Septoria tritici; test: Test D: wheat leaf blotch, preventive spray on wheat seedlings; settings: 40 ppm test suspension sprayed to run-off on wheat seedlings, inoculated the following day; 100 = 100% disease control, 0 = no control; triplicate, averaged
Protocol: as §1
as §3, with “tritici” for “nodorum”, “wheat leaf” for “Septoria glume”, “in” for “in a”, “h.” for “h,”, “then the seedlings were” for “then”, “19 additional” for “9”
as §2

[5] = test system: Puccinia recondite f. sp. tritici; test: Test E: wheat leaf rust, spray after inoculation of wheat seedlings; settings: 40 ppm test suspension sprayed on wheat seedlings after inoculation (24 h incubation, then 2 days in growth chamber); 100 = 100% disease control, 0 = no control; triplicate, averaged
Protocol: as §1
Wheat seedlings were inoculated with a spore suspension of Puccinia recondite f. sp. tritici (the causal agent of wheat leaf rust) and incubated in a saturated atmosphere at 20° C. for 24 h, and then moved to a growth chamber at 20° C. for 2 days. After 2 days, the test suspension was sprayed to the point of run-off on the wheat seedlings, and then the seedlings were moved back to the growth chamber at 20° C. for 4 days. Upon removal, visual disease ratings were made.
as §2

[6] = test system: Puccinia recondite f. sp. tritici; test: Test F: wheat leaf rust, preventive spray on wheat seedlings; settings: 40 ppm test suspension sprayed to run-off on wheat seedlings, inoculated the following day; 100 = 100% disease control, 0 = no control; triplicate, averaged
Protocol: as §1
as §3, with “Puccinia recondite f. sp. tritici” for “Septoria nodorum”, “wheat leaf rust)” for “Septoria glume blotch)”, “20°” for “24°”, “24” for “48”, “6” for “9”
as §2

[7] = test system: Blumeria graminis f. sp. tritici; test: Test G: wheat powdery mildew, preventive spray on wheat seedlings; settings: 40 ppm test suspension sprayed to run-off on wheat seedlings, inoculated with spore dust the following day; 100 = 100% disease control, 0 = no control; triplicate, averaged
Protocol: as §1
The test suspension was sprayed to the point of run-off on wheat seedlings. The following day the seedlings were inoculated with a spore dust of Blumeria graminis f. sp. tritici (also known as Erysiphe graminis f. sp. tritici, the causal agent of wheat powdery mildew) and incubated in a growth chamber at 20° C. for 8 days, after which time visual disease ratings were made.
as §2

| SMILES | Test A rating (disease control) [1] [%] | Test B rating (disease control) [2] [%] | Test C rating (disease control) [3] [%] | Test D rating (disease control) [4] [%] | Test E rating (disease control) [5] [%] | Test F rating (disease control) [6] [%] | Test G rating (disease control) [7] [%] |
| --- | --- | --- | --- | --- | --- | --- | --- |
| Cc1nc(Br)n(Nc2ccc(F)cc2Cl)c1-c1ccc(F)cc1F [Compound 2, 2-bromo-N-(2-chloro-4-fluorophenyl)-5-(2,4-difluorophenyl)-4-methyl-1H-imidazol-1-amine] | 99 | 0 | 60 | 100 | 30 | 99 | 100 |
| Fc1cc(F)c(Nn2c(Cl)nc(Cl)c2-c2ccc(Cl)cc2Cl)c(Cl)c1 [Compound 11, N-(2-chloro-4,6-difluorophenyl)-2,4-dichloro-5-(2,4-dichlorophenyl)-1H-imidazol-1-amine] | 0 | 0 | 0 | 0 | 0 | 0 | 52 |
| Fc1ccc(-c2c(CCl)nc(Cl)n2Nc2ccc(F)cc2Cl)c(F)c1 [Compound 13] | 66 | 0 | 0 | 97 | 0 | 95 | 98 |
| Cc1ncn(Nc2ccc(F)cc2F)c1-c1ccc(F)cc1F [Compound 9] | 87 | 0 | 0 | 79 | 36 | 14 | 0 |
| Cc1ncn(Nc2ccc(Cl)cc2Cl)c1-c1ccc(F)cc1 [Compound 3] | – | 0 | 0 | 99 | 0 | 41 | 0 |
| Cc1nc(Br)n(Nc2ccc(Cl)cc2Cl)c1-c1ccc(Cl)cc1 [Compound 5] | – | 0 | 0 | 99 | 0 | 9 | 0 |
| Fc1ccc(Nn2c(Br)nc(Br)c2-c2ccc(Cl)cc2Cl)c(F)c1 [Compound 14] | 0 | 0 | 0 | 0 | 0 | 0 | 0 |
| Cc1nc(Br)n(Nc2ccc(Cl)cc2Cl)c1-c1ccc(F)cc1 [Compound 6] | 16 | 0 | 0 | 93 | – | 55 | 0 |
| Cc1nc(Br)n(Nc2c(Cl)cc(Cl)cc2Br)c1-c1ccc(F)cc1F [Compound 8, N-(2-bromo-4,6-dichlorophenyl)-4-methyl-2-bromo-5-(2,4-difluorophenyl)-1H-imidazol-1-amine] | 99 | 9 | 0 | 100 | 19 | 100 | 98 |
| Cc1ncn(Nc2ccc(Cl)cc2Cl)c1-c1ccc(F)cc1F [Compound 7, 5-(2,4-difluorophenyl)-N-(2,4-dichlorophenyl)-4-methyl-1H-imidazol-1-amine] | 100 | 0 | 0 | 100 | 0 | 97 | 91 |
| Fc1ccc(-c2c(C(Cl)Cl)nc(Cl)n2Nc2ccc(F)cc2Cl)c(F)c1 [Compound 12] | 0 | 0 | 0 | 89 | 0 | 86 | 73 |
| Cc1ncn(Nc2ccc(F)cc2Cl)c1-c1ccc(F)cc1F [Compound 1, N-(2-chloro-4-fluorophenyl)-5-(2,4-difluorophenyl)-4-methyl-1H-imidazol-1-amine] | 100 | 70 | 0 | 92 | – | 95 | 91 |
| Cc1nc(Br)n(Nc2ccc(F)cc2F)c1-c1ccc(F)cc1F [Compound 10, 2-bromo-N,5-bis(2,4-difluorophenyl)-4-methyl-1H-imidazol-1-amine] | 99 | 40 | 0 | 100 | 7 | 100 | 96 |

Reference: US20140194473A1, “IMIDAZOLE FUNGICIDES” (E I Du Pont De Nemours And Company, priority 2013, published 2014)
